This is an account of results in patent US20150079590A1, “CHARACTERIZATION AND ANALYSIS OF THE COMPOSITION AND DYNAMICS OF THE MAMMALIAN RIBOPROTEOME” (Beth Israel Deaconess Medical Center, Inc., priority 2013, published 2015).

Experiment [1] deals with riboproteomes of PPC1 prostate cancer cells. Put plainly: SILAC riboproteomic analysis of polysomes upon mTOR inhibition. It is filed as cell-based, human.
Description: SILAC labeled protein mixtures were run by SDS-PAGE and gel lanes were cut into 8 sections for overnight digestion at pH 8.0 with modified sequencing grade trypsin (Promega Corp.). Peptide mixtures were eluted and each gel section was analyzed separately by microcapillary liquid chromatography-tandem mass spectrometry (LC-MS/MS) using the EASY-nLC nanoflow HPLC (Thermo Fisher Scientific) with a 75 μm inner diameter×15 cm length Picofrit capillary column (New Objective, Inc.) self-packed with 5 μm Magic C18 resin (Michrom Bioresources) coupled to a hybrid LTQ Orbitrap XL-ETD mass spectrometer (Thermo Fisher Scientific). The LTQ Orbitrap XL was operated in data-dependent acquisition (DDA) Top 5 mode (1 profile FT-MS spectrum followed by 6 centroided IT-MS/MS spectra). The resolution was 30,000 in FT-MS mode and MS/MS spectra were read out at low resolution in the LTQ XL ion trap. […] Carbamidomethylation of cysteine was set as fixed modification and variable modifications were oxidation of methionine and protein N-acetylation. […] Initial peptide mass tolerance was set to 12 ppm and fragment ion mass tolerance was set to 0.8 Da. Two missed cleavages were allowed and the minimal length required for a peptide was six amino acids. […]
The test system of experiment [2] is binding of LARP1 at the polysome. In words: Micrococcal nuclease (MN) assay on pooled sucrose gradient fractions, ribosome pelleting and western blot. As to conditions: cells treated with PP242 prior to analysis.
Description: Pooled sucrose gradient fractions containing LARP1 protein, were treated with and without MN. Ribosomes were subsequently pelleted by ultracentrifugation, and the protein in supernatant and pellet isolated for western blot analysis.
Experiment [3] deals with ribosome-mRNA complexes of PC3 prostate cancer cells. In words: Puromycin-mediated dissociation of ribosome-mRNA complexes, western blot of polysomal fractions. The following applies: 1 mM puromycin in lysis buffer, 37° C. 15 min. It counts as biochemical, human. The protocol: Puromycin-induced polysome dissociation was carried out by the addition of 1 mM puromycin directly to the lysis buffer lacking cycloheximide as previously described (Blobel and Sabatini, Proc Natl Acad Sci USA 68:390-394, 1971; Fuchs et al., J Mol Biol. 410:118-130, 2011). Briefly, following lysis, the samples were incubated at 37° C. for 15 min to dissociate ribosome-mRNA complexes. Lysates were centrifuged at 13,000 rpm for 5 min at 4° C., and the supernatant carefully removed and loaded on a 15%-50% sucrose gradient. Gradients were centrifuged and fractionated as described above.
Cells were lysed in lysis buffer containing Complete Mini protease inhibitors (EDTA free) (Roche) and a Phosphatase Inhibitor cocktail (Thermo Scientific). 5-50 μg of total protein was subjected to SDS-PAGE on 4-12% Bis-Tris acrylamide NuPAGE gels in MOPS SDS running buffer (Invitrogen). The following primary antibodies were used: MARCKS, phospho-MARCKS (S152/156), Integrin β1, Calmodulin, Hsp27, Hsp60, RpL13a, RpL7a, and RpS6 (all Cell Signaling), HSP90, (BD Bioscience; BD Transduction Laboratories), hnRNPC1/C2 (Millipore), Rps14 and β-actin (all from Santa Cruz Biotechnologies). The NPM antibody was from DAKO and the IGF2BP3 antibody was from ProteinTech. Subsequently, membranes were incubated with secondary, HRP-tagged antibodies (Amersham) and signals were visualized with ECL or ECL plus (Amersham). […]
On the technique in general: In western blotting, separated proteins are transferred to a membrane and probed.

Molecules are shown by their SMILES.

As to `CC(C)n1nc(-c2cc3cc(O)ccc3[nH]2)c2c(N)ncnc21` [PP242], the “disassociation of proteins incl. ribosomal proteins (RpL4, RpL6, RpS6) from the riboproteome” value in experiment [1] (PP242 500 nM for three hours vs DMSO) is “rapid and significant disassociation from the riboproteome”. For the same compound, the “impact on the composition of the riboproteome” value in experiment [1] (rapamycin 20 nM or PP242 500 nM for three hours vs DMSO, SILAC mass spectrometry of polysomes) is “much stronger and more robust perturbation of the riboproteome”. In experiment [2], the “LARP1 in supernatant after ribosome pelleting” value is given as “more LARP1 observed in the supernatant” and the “PABP association with polysome fractions” value is reported as “remain tightly intact with polysome fractions”.

In the case of `COc1ccc(C[C@H](N)C(=O)N[C@H]2[C@@H](O)[C@H](n3cnc4c(N(C)C)ncnc43)O[C@@H]2CO)cc1` [puromycin], the “RpS6 and RpL13a on polyribosomes” value in experiment [3] (pooled polysomal fractions) was “loss of RpS6 and RpL13a from polyribosomes”. In experiment [3] (PC3 cells), the “presence of MARCKS in polyribosome fractions” value is reported as “dramatically decreased”.
